Legend:
[1] = Liver Microsome Stability Assay, mouse; type: in vitro ADME; conditions: mouse liver microsomes 1.0 mg/mL, 1.0 uM compound, 37° C., 1 mM NADPH
In short: (§1)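 Compound at 1.0 uM (0.4% DMSO) was incubated at 37° C with 1.0 mg/mL liver microsomes in 0.1 M potassium phosphate, with or without 1 mM NADPH. Samples were quenched at 0 and 30 minutes.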

[2] = test system: multiple myeloma cell line U266B1; assay: U266 Cell Viability Assay; type: cell-based; conditions: Homo sapiens, U-266; U266B1 cells, 48 hours, Celltiter-Glo; read-out: 48 hr U266 Viability Celltiter-Glo: Mean EC50
In short: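 Steps: culture in RPMI 1640 plus 10% FBS and 2 mM glutamine; plate and add compound dilutions; incubate 48 hours at 37° C., 5% CO2; add CellTiter-Glo and quantify luciferase signal.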

[3] = test system: IL6R-ss+10aa/Gaussia Luciferase; assay: Dox-induced IL-6R-ss-Gluc Assay; type: cell-based; conditions: Table 1; for IC50: Flp-In 293 T-REx cells, 24 hours with doxycycline, read-out: 24hr Dox Inducible IL6R(ss + 10)Gluc 293FRT/TO: Mean IC50; for 24hr Dox Inducible IL6R(ss + 10)Gluc 293FRT/TO: IL6R/PD1: ratio of IC50s IL6R/PD1
In short: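 Flp-In 293 T-REx cells stably carrying a doxycycline-inducible IL6R signal sequence+10 aa fused to Gaussia luciferase. Cells plated the day before; compound dilutions added in DMSO/media containing doxycycline and incubated at 37 °C, 5% CO2.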

[4] = test system: PD1-ss+10aa/Gaussia Luciferase; assay: Dox-Induced PD1-ss-Gluc Assay; type: cell-based; conditions: Flp-In 293 T-REx cells, 24 hours with doxycycline; Table 1; read-out: 24 hr Dox Inducible PD1ssGluc 293FRT/TO: Mean IC50
In short: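 Flp-In 293 T-REx, stable line; Tet-regulated PD1-ss+10aa fused to Gaussia luciferase; plated day prior; cpd + doxycycline in DMSO/media; 37 °C, 5% CO2.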

[5] = Liver Microsome Stability Assay, monkey; type: in vitro ADME; conditions: monkey liver microsomes 1.0 mg/mL, 1.0 uM compound, 37° C., 1 mM NADPH
In short: as §1

[6] = test system: IL-2-FL/Gaussia Luciferase; assay: Dox Inducible IL2-FL-Gluc Assay; type: cell-based; conditions: Table 1; for IC50: Flp-In 293 T-REx cells, 24 hours with doxycycline, read-out: 24 hr Dox Inducible IL2FLGluc 293FRT/TO: Mean IC50; for 24 hr Dox Inducible IL2FLGluc 293FRT/TO: IL2/PD1: ratio of IC50s IL2/PD1
In short: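 Cells are plated one day ahead, then receive compound dilutions in DMSO/media with doxycycline and incubate at 37° C, 5% CO2. They are Flp-In 293 T-REx cells expressing a full-length IL-2 (amino acids 1-153)–Gaussia luciferase fusion under T-REx control.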

[7] = Liver Microsome Stability Assay, rat; type: in vitro ADME; conditions: rat liver microsomes 1.0 mg/mL, 1.0 uM compound, 37° C., 1 mM NADPH
In short: as §1

[8] = Liver Microsome Stability Assay, human; type: in vitro ADME; conditions: human liver microsomes 1.0 mg/mL, 1.0 uM compound, 37° C., 1 mM NADPH
In short: as §1

CD47(ss + 10)Gluc = assay: Dox-Induced CD47-ss-Gluc Assay; type: cell-based; conditions: Flp-In 293 T-REx cells, 24 hours with doxycycline; Table 1; read-out: 24 hr Dox Inducible CD47(ss + 10)Gluc 293FRT/TO: Mean IC50
[9] = test system: multiple myeloma cell line NCI-H929; assay: H929 Cell Viability Assay; type: cell-based, human; conditions: NCI-H929 cells, 48 hours, Celltiter-Glo; for EC50: Homo sapiens, read-out: 48 hr H929 Viability Celltiter-Glo: Mean EC50
In short: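 Luminescent ATP detection (CellTiter-Glo) after 48 hours of compound exposure measures viability. Cells were plated in RPMI 1640 containing 10% fetal bovine serum and kept at 37° C under 5% CO2.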

Row | SMILES | Liver Microsome Stability (Multiple Species): Mouse - % Remaining after 30 min w/ NADPH (%) [1] | EC50 [2] | IC50 [3] | IC50 [4] | Liver Microsome Stability (Multiple Species): Monkey - % Remaining after 30 min w/ NADPH (%) [5] | IC50 [6] | Liver Microsome Stability (Multiple Species): Rat - % Remaining after 30 min w/ NADPH (%) [7] | Liver Microsome Stability (Multiple Species): Human - % Remaining after 30 min w/ NADPH (%) [8] | IC50 (CD47(ss + 10)Gluc) | 48 hr H929 Viability Celltiter-Glo: Mean EC50 (nM) [9] | EC50 [9] | 24hr Dox Inducible IL6R(ss + 10)Gluc 293FRT/TO: IL6R/PD1 [3] | 24 hr Dox Inducible IL2FLGluc 293FRT/TO: IL2/PD1 [6]
1 | CC(C)n1cnc(/C=C/c2csc(NC(=O)c3cc(OC(F)F)cn3Cc3ccnc(F)c3)n2)c1Cl [Compound A7, (E)-N-(4-(2-(5-chloro-1-isopropyl-1H-imidazol-4-yl)vinyl)thiazol-2-yl)-4-(difluoromethoxy)-1-((2-fluoropyridin-4-yl)methyl)-1H-pyrrole-2-carboxamide] | 82% | > 25 µM | 2430 nM | 14 nM | 55% | 2700 nM | 84% | 64% | 2100 nM |  | 19.5 µM | 176 | 200
2 | [2H]C([2H])([2H])Oc1cc(C(=O)Nc2nc(/C=C/c3ncn(C4CC4)c3Cl)cs2)n(Cc2ccnc(F)c2F)c1 [Compound A22, (E)-N-(4-(2-(5-chloro-1-cyclopropyl-1H-imidazol-4-yl)vinyl)thiazol-2-yl)-1-((2,3-difluoropyridin-4-yl)methyl)-4-(methoxy-d3)-1H-pyrrole-2-carboxamide] | 69% | > 25 µM | > 25000 nM | 34 nM | 9% | > 25000 nM | 33% | 16% | 5530 nM |  | > 25 µM | >741 | >740
3 | N#Cc1c(/C=C/c2csc(NC(=O)c3cc(Cl)cn3Cc3ccnc(F)c3)n2)ncn1C1CC1 [Compound A28, (E)-4-chloro-N-(4-(2-(5-cyano-1-cyclopropyl-1H-imidazol-4-yl)vinyl)thiazol-2-yl)-1-((2-fluoropyridin-4-yl)methyl)-1H-pyrrole-2-carboxamide] | 67% | 15.5 µM | 1490 nM | 22 nM | 9% | 1500 nM | 2% | 22% | 1400 nM |  | > 25 µM | 68 | 69.0
4 | COc1cc(C(=O)Nc2nc(/C=C/c3ncn(C4CC4)c3Cl)cs2)n(Cc2ccnc(F)c2F)c1 [Compound A20] | 74% | > 25 µM | 3760 nM | 31 nM | 28% | > 25000 nM | 41% | 52% | 5010 nM |  | > 25 µM | 123 | >810

Now from value to compound, other results behind:

Row | Liver Microsome Stability (Multiple Species): Mouse - % Remaining after 30 min w/ NADPH (%) [1] | EC50 [2] | IC50 [3] | IC50 [4] | Liver Microsome Stability (Multiple Species): Monkey - % Remaining after 30 min w/ NADPH (%) [5] | IC50 [6] | Liver Microsome Stability (Multiple Species): Rat - % Remaining after 30 min w/ NADPH (%) [7] | Liver Microsome Stability (Multiple Species): Human - % Remaining after 30 min w/ NADPH (%) [8] | IC50 (CD47(ss + 10)Gluc) | 48 hr H929 Viability Celltiter-Glo: Mean EC50 (nM) [9] | EC50 [9] | SMILES | 24hr Dox Inducible IL6R(ss + 10)Gluc 293FRT/TO: IL6R/PD1 [3] | 24 hr Dox Inducible IL2FLGluc 293FRT/TO: IL2/PD1 [6]
5 | 72% | > 25 µM | 2100 nM | 9 nM | 17% | 3020 nM | 2% | 26% | 2740 nM | I.A |  | CCOc1cc(C(=O)Nc2nc(/C=C/c3ncn(C4CC4)c3Cl)cs2)n(Cc2ccnc(F)c2)c1 [Compound A17, (E)-N-(4-(2-(5-chloro-1-cyclopropyl-1H-imidazol-4-yl)vinyl)thiazol-2-yl)-4-ethoxy-1-((2-fluoropyridin-4-yl)methyl)-1H-pyrrole-2-carboxamide] | 240 | 340
6 | 81% | > 25 µM | 2150 nM | 6 nM | 58% | 2910 nM | 56% | 83% | 2800 nM |  | > 25 µM | [2H]C([2H])(c1ccnc(F)c1)n1cc(OC(F)F)cc1C(=O)Nc1nc(/C=C/c2ncn(C3CC3)c2Cl)cs1 [Compound A16, (E)-N-(4-(2-(5-chloro-1-cyclopropyl-1H-imidazol-4-yl)vinyl)thiazol-2-yl)-4-(difluoromethoxy)-1-((2-fluoropyridin-4-yl)methyl-d2)-1H-pyrrole-2-carboxamide] | 339 | 460
7 | 21% | > 25 µM | > 25000 nM | 48 nM | 43% | > 25000 nM | 1% | 51% | > 25000 nM |  | > 25 µM | O=C(Nc1nc(/C=C/c2ncn(C3CC3)c2Cl)cs1)c1cc(C(F)F)cn1Cc1ccnc(F)c1 [Compound A29, (E)-N-(4-(2-(5-chloro-1-cyclopropyl-1H-imidazol-4-yl)vinyl)thiazol-2-yl)-4-(difluoromethyl)-1-((2-fluoropyridin-4-yl)methyl)-1H-pyrrole-2-carboxamide] | >517 | >650

— patent US20250171434A1, “SEC61 INHIBITORS AND USE THEREOF” (KEZAR LIFE SCIENCES, INC., priority 2022, published 2025)
